From paper PMC3706556 (Environmental microbiology, 2013)

Assays:
CYP142A2 [1] = target: T1, CYP142A2 (Mycolicibacterium smegmatis, UniProt A0R4Q6); experiment: biochemical
CYP125A3 = CYP125A3 (Mycolicibacterium smegmatis, UniProt A0R4Y3); experiment: biochemical; assay type: binding, Mycobacterium smegmatis mc2 155; settings: for Soret band position after ligand addition: CYP125A3 3 μM, ligand 50 μM, resting Soret 393 nm with shoulder at 415 nm
CYP142A2 [2] = target: T1, CYP142A2; settings: CYP142A2 3 μM, ligand 50 μM; resting Soret 418 nm

Chain of CYP125A3 (A0R4Y3 whole entry): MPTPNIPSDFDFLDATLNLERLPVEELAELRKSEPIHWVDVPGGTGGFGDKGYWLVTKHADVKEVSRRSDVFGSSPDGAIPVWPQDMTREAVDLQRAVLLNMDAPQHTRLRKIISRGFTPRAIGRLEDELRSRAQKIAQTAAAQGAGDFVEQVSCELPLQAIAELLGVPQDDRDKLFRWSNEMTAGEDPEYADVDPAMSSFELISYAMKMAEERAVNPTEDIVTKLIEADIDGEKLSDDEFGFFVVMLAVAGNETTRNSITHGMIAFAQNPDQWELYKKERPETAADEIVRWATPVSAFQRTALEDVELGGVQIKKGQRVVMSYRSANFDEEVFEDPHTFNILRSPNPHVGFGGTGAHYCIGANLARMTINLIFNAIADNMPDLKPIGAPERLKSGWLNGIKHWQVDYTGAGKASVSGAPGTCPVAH
T1 sequence (A0R4Q6 whole entry): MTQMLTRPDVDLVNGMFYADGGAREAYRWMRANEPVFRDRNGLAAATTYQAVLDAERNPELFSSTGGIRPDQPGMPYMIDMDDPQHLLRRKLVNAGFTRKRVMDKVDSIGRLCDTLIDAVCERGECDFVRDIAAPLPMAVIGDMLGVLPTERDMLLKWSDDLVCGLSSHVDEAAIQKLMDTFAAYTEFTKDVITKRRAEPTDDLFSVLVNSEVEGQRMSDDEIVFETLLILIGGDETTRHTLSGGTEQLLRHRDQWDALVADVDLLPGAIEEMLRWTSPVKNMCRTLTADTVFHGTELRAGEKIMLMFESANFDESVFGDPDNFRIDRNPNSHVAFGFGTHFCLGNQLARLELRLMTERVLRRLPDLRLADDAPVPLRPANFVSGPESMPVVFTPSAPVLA

Row | SMILES | Kd (CYP142A2 [1]) [µM] | Kd (CYP125A3) [µM] | Soret band position after ligand addition (CYP142A2 [2]) [nm] | Soret band position after ligand addition (CYP125A3) [nm]
1 | Clc1ccccc1C(c1ccccc1)(c1ccccc1)n1ccnc1 [Clotrimazole] | 16.2 ± 0.75 | 14.5 ± 1.58 |  | 
2 | Clc1ccc(COC(Cn2ccnc2)c2ccc(Cl)cc2Cl)c(Cl)c1 (centres unmarked) [Miconazole] | 6.58 ± 0.7 | 1.66 ± 0.21 |  | 
3 | CC(C)CCC[C@@H](C)[C@H]1CC[C@H]2[C@@H]3CCC4=CC(=O)CC[C@]4(C)[C@H]3CC[C@]12C [Cholest-4-en-3-one] | 0.52 ± 0.26 | 2.3 ± 1.4 |  | 
4 | CC(C)CCC[C@@H](C)[C@H]1CC[C@H]2[C@@H]3CC=C4C[C@@H](O)CC[C@]4(C)[C@H]3CC[C@]12C [Cholesterol] | 0.14 ± 0.07 | 1.1 ± 0.5 | 393 | 393
5 | Clc1ccc(COC(Cn2ccnc2)c2ccc(Cl)cc2Cl)cc1 (centres unmarked) [Econazole] | 7.4 ± 0.52 | 7.38 ± 0.71 | 422 | 415
